Source: ChEMBL document CHEMBL5705884, “Breaching the DNA damage checkpoint via PF-00477736, a novel small-molecule inhibitor of checkpoint kinase 1” (Mol Cancer Ther, 2008)
Calls of active or inactive are those of the source. The calls are words filed in the database; no cut-off is given here.

Assays:
HT-29 [1] = experiment: Potentiation of gemcitabine induced cytotoxicity in human HT-29 cells assessed as cell survival at 180 nM measured after 4 to 48 hrs by coulter counter method relative to gemcitabine alone; assay type: functional; conditions: time 4-48 hrs, read-out: Activity
[2] = Toxicity in athymic nude mouse assessed as effect on body weight at 4 to 20 mg/kg, ip administered twice daily in presence of gemcitabine; assay type: organism-based; conditions: in vivo, dose 4-20 mg/kg
COLO 205 [3] = experiment: Antitumor activity against human COLO 205 cells xenografted in athymic nude mouse model assessed as tumor growth inhibition at 4 mg/kg, ip administered once daily in presence of gemcitabine (Gemcitabine alone= 58%); assay type: functional; conditions: read-out: TGI
COLO 205 [4] = experiment: Antitumor activity against human COLO 205 cells xenografted in athymic nude mouse model assessed as gross log cell kill at 30 mg/kg, ip administered twice daily in presence of gemcitabine (Gemcitabine alone = 0.27%); assay type: functional
COLO 205 [5] = experiment: Antitumor activity against human COLO 205 cells xenografted in athymic nude mouse model assessed as tumor growth delay by measuring test to control tumor ratio at 15 mg/kg, ip administered twice daily in presence of gemcitabine (Gemcitabine alone = 3%); assay type: functional
COLO 205 [6] = experiment: Antitumor activity against human COLO 205 cells xenografted in athymic nude mouse model assessed as tumor growth delay by measuring test to control tumor ratio at 30 mg/kg, ip administered once daily in presence of gemcitabine (Gemcitabine alone = 3%); assay type: functional
HT-29 [7] = experiment: Induction of DNA damage in gemcitabine induced human HT-29 cells assessed as increase in intensity of H2AX phosphorylation at 360 nM measured after 24 hrs by immunoblot analysis; assay type: functional, cell-based
COLO 205 [8] = experiment: Antitumor activity against human COLO 205 cells xenografted in athymic nude mouse model assessed as tumor growth inhibition at 7.5 mg/kg, ip administered twice daily in presence of gemcitabine (Gemcitabine alone = 40%); assay type: functional; conditions: read-out: TGI
COLO 205 [9] = experiment: Potentiation factor, ratio of IC50 for human COLO 205 cells to IC50 for human COLO 205 cells in presence of SN-38; assay type: functional
HT-29 [10] = experiment: Potentiation of camptothecin induced cytotoxicity in human HT-29 cells assessed as cell survival at 360 nM measured after 4 to 48 hrs by coulter counter method relative to camptothecin alone; assay type: functional; conditions: time 4-48 hrs, read-out: Activity
COLO 205 [11] = experiment: Antitumor activity against human COLO 205 cells xenografted in athymic nude mouse model assessed as tumor growth delay by measuring test to control tumor ratio at 30 mg/kg, ip administered twice daily in presence of gemcitabine (Gemcitabine alone = 3%); assay type: functional
[12] = biological target: Tyrosine-protein kinase Yes (Homo sapiens, UniProt P07947); experiment: Inhibition of Yes (unknown origin)
COLO 205 [13] = experiment: Antitumor activity against human COLO 205 cells xenografted in athymic nude mouse model assessed as tumor growth inhibition at 15 mg/kg, ip administered once daily in presence of gemcitabine (Gemcitabine alone = 40%); assay type: functional; conditions: read-out: TGI
HT-29 [14] = experiment: Inhibition of gemcitabine induced cell cycle arrest in human HT-29 cells assessed as disappearance of cyclin B level at 360 nM measured after 24 hrs by immunoblot analysis relative to control; assay type: functional
COLO 205 [15] = experiment: Antitumor activity against human COLO 205 cells xenografted in athymic nude mouse model assessed as gross log cell kill at 15 mg/kg, ip administered once daily in presence of gemcitabine (Gemcitabine alone = 0.27%); assay type: functional
HT-29 [16] = experiment: Upregulation of cyclin B level in gemcitabine induced human HT-29 cells at 360 nM measured after 10 hrs by immunoblot analysis; assay type: functional, cell-based
[17] = Terminal half life in Sprague-Dawley rat at 4 mg/kg, iv administered as bolus dose by LCMS analysis; assay type: ADME, organism-based; conditions: in vivo, read-out: beta t1/2 (converted)
HT-29 [18] = experiment: Potentiation factor, ratio of IC50 for human HT-29 cells to IC50 for human HT-29 cells in presence of mytomicin-C; assay type: functional
COLO 205 [19] = experiment: Antitumor activity against human COLO 205 cells xenografted in athymic nude mouse model assessed as tumor growth delay by measuring test to control tumor ratio at 24 mg/kg, ip administered twice daily in presence of gemcitabine (Gemcitabine alone= 8%); assay type: functional
COLO 205 [20] = experiment: In vivo inhibition of Chk1 in athymic nude mouse xenografted with gemcitabine treated human COLO 205 cells assessed as increase in phospho histone H2AX level at 7.5 to 15 mg/kg by immunohistochemical analysis; assay type: functional, organism-based; conditions: dose 7.5-15 mg/kg
COLO 205 [21] = experiment: Antitumor activity against human COLO 205 cells xenografted in athymic nude mouse model assessed as gross log cell kill at 24 mg/kg, ip administered twice daily in presence of gemcitabine (Gemcitabine alone = 0.5%); assay type: functional
COLO 205 [22] = experiment: Antitumor activity against human COLO 205 cells xenografted in athymic nude mouse model assessed as tumor growth delay by measuring test to control tumor ratio at 20 mg/kg, ip administered once daily in presence of gemcitabine (Gemcitabine alone= 8%); assay type: functional
COLO 205 [23] = experiment: Antitumor activity against human COLO 205 cells xenografted in athymic nude mouse model assessed as tumor growth inhibition at 30 mg/kg, ip administered twice daily in presence of gemcitabine (Gemcitabine alone = 40%); assay type: functional; conditions: read-out: TGI
HT-29 [24] = experiment: Induction of apoptosis in gemcitabine induced human HT-29 cells assessed as apoptotic cell death measured after 10 hrs by PI staining based flow cytometry analysis (reference value: 0.6%); assay type: functional
HT-29 [25] = experiment: Cytotoxicity in human HT-29 cells assessed as cell survival at 180 nM measured after 4 to 48 hrs by coulter counter method relative to control; assay type: functional; conditions: time 4-48 hrs, read-out: Activity
HT-29 [26] = experiment: Potentiation of camptothecin induced cytotoxicity in human HT-29 cells assessed as cell survival at 540 nM measured after 4 to 48 hrs by coulter counter method relative to camptothecin alone; assay type: functional; conditions: time 4-48 hrs, read-out: Activity
[27] = AUC (0 to infinity) in Sprague-Dawley rat at 4 mg/kg, iv administered as bolus dose by LCMS analysis; assay type: ADME, organism-based; conditions: in vivo
[28] = biological target: Fibroblast growth factor receptor 3 (Homo sapiens, UniProt P22607); experiment: Inhibition of FGFR3 (unknown origin)
MDA-MB-231 [29] = experiment: Potentiation factor, ratio of IC50 for human MDA-MB-231 cells to IC50 for human MDA-MB-231 cells in presence of doxorubicin; assay type: functional
K562 = experiment: Potentiation factor, ratio of IC50 for human K562 cells to IC50 for human K562 cells in presence of carboplatin; assay type: functional
MDA-MB-231 [30] = experiment: Potentiation factor, ratio of IC50 for human MDA-MB-231 cells to IC50 for human MDA-MB-231 cells in presence of mytomicin-C; assay type: functional
HT-29 [31] = experiment: Potentiation of camptothecin induced cytotoxicity in human HT-29 cells assessed as cell survival at 180 nM measured after 4 to 48 hrs by coulter counter method relative to camptothecin alone; assay type: functional; conditions: time 4-48 hrs, read-out: Activity
PC-3 = experiment: Potentiation factor, ratio of IC50 for human PC-3 cells to IC50 for human PC-3 cells in presence of carboplatin; assay type: functional
COLO 205 [32] = experiment: Antitumor activity against human COLO 205 cells xenografted in athymic nude mouse model assessed as tumor growth delay by measuring test to control tumor ratio at 4 mg/kg, ip administered twice daily in presence of gemcitabine (Gemcitabine alone= 8%); assay type: functional
HT-29 [33] = experiment: Inhibition of gemcitabine induced cell cycle arrest in human HT-29 cells assessed as increase in G2-M cell population pretreated with gemcitabine followed by compound treatment and measured after 10 to 48 hrs by flow cytometry analysis; assay type: functional, cell-based; conditions: time 10-48 hrs

Tyrosine-protein kinase Yes, sequence (P07947 whole entry): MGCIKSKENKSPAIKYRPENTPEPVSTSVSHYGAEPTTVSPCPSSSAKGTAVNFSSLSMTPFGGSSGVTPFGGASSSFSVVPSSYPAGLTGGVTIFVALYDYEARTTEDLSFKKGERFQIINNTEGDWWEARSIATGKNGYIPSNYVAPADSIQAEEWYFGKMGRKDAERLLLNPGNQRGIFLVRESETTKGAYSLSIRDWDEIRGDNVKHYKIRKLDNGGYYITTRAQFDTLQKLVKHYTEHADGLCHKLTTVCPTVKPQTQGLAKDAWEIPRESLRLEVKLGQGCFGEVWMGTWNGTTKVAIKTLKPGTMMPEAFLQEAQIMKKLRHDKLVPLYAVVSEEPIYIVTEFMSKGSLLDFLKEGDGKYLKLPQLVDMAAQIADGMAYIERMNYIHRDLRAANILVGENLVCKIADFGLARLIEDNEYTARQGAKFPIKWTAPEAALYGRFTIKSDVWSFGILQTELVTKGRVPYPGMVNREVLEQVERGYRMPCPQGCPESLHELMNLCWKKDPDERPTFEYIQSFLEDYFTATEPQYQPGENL
Fibroblast growth factor receptor 3, sequence (P22607 whole entry): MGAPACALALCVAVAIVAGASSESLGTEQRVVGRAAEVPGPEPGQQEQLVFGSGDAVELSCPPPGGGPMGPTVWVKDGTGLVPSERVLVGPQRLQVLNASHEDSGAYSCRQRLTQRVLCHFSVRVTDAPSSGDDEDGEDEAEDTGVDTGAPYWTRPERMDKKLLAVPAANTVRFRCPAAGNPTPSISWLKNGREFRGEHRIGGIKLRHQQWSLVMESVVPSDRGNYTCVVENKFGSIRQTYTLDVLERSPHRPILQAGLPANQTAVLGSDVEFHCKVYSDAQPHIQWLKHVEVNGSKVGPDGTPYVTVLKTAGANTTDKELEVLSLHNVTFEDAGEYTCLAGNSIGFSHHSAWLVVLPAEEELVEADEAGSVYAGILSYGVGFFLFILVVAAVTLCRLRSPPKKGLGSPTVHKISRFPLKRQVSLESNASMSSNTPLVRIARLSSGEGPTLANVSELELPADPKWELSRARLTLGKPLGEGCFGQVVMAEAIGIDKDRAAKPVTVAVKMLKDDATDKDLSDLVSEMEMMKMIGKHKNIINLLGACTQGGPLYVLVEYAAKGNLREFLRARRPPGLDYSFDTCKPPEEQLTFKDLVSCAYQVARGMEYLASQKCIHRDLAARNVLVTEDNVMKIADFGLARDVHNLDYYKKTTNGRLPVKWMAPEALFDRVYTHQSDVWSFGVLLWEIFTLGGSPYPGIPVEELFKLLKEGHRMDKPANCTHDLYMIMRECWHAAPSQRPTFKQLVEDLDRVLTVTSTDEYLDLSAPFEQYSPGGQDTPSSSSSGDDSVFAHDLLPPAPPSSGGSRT

Cn1cc(-c2[nH]c3cc(NC(=O)[C@H](N)C4CCCCC4)cc4c3c2C=NNC4=O)cn1
viability at 0.18 µM (HT-29 [1]): 75% | Activity [2]: Non-Toxic | inhibition in vivo at 4 mg/kg (COLO 205 [3]): 58% | LCK (COLO 205 [4]): 0.89 | T/C (COLO 205 [5]): 11.25 | T/C (COLO 205 [6]): 7.25 | Activity (HT-29 [7]): Active | inhibition in vivo at 7.5 mg/kg (COLO 205 [8]): 70% | PF50 (COLO 205 [9]): 2.1 | viability at 0.36 µM (HT-29 [10]): 84% | T/C (COLO 205 [11]): 9.75 | IC50 [12]: 29 nM | inhibition in vivo at 15 mg/kg (COLO 205 [13]): 67% | inhibition at 0.36 µM (HT-29 [14]): 100% | LCK (COLO 205 [15]): 0.71 | Activity (HT-29 [16]): Active | half-life [17]: 2.9 h | PF50 (HT-29 [18]): 3.7 | T/C (COLO 205 [19]): 12 | inhibition (COLO 205 [20]): Active | LCK (COLO 205 [21]): 0.75 | T/C (COLO 205 [22]): 12 | inhibition in vivo at 30 mg/kg (COLO 205 [23]): 78% | Activity (HT-29 [24]): 0.1% | viability at 0.18 µM (HT-29 [25]): 97% | viability at 0.54 µM (HT-29 [26]): 78% | AUC(0-inf) [27]: 5720 ng·h/mL | IC50 [28]: 47 nM | PF50 (MDA-MB-231 [29]): 2.25 | PF50 (K562): 1.9 | PF50 (MDA-MB-231 [30]): 1.2 | viability at 0.18 µM (HT-29 [31]): 90% | PF50 (PC-3): 3.1 | T/C (COLO 205 [32]): 8 | inhibition (HT-29 [33]): Active
